The IC50 is the concentration at which inhibition is half-maximal.

The target of experiment [1] is T1, TGF-beta Type II Receptor Kinase (RII WT) (Homo sapiens, UniProt P37173).
T1 construct: The 6×-HIS tagged cytoplasmic kinase domain of each receptor was expressed and purified from Sf9 insect cell lysates; 6xHis; made in house; host or cells: Sf9 insect cells
T1 sequence (P37173 188-567 limits assumed): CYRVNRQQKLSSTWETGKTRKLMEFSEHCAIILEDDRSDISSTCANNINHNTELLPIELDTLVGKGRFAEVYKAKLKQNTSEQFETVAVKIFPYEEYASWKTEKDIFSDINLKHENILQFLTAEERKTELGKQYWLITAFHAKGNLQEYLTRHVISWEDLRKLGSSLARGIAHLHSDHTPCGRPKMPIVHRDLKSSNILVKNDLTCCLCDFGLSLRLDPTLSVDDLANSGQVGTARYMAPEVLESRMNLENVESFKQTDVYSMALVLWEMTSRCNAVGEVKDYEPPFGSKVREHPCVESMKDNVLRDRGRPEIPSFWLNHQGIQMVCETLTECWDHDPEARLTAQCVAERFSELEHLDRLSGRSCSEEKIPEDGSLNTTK
Briefly: TGF-β Type II receptor (RII WT) in vitro kinase reaction. The experiment is classed as biochemical. The settings on record: RII WT kinase domain, 4 uM ATP, 30° C. for 40 min; read-out: IC50, inhibition of TGF-beta Type II Receptor Kinase. Here is the method: (§1) For TGF-β Type I (RIT204D) and Type II (RII WT) Receptor Kinases:
(§2) The 6×-HIS tagged cytoplasmic kinase domain of each receptor was expressed and purified from Sf9 insect cell lysates as briefly described below:
(§3) Cell pellets after 48-72 hrs of infection were lysed in lysis buffer (LB: 50 mM Tris pH 7.5, 150 mM NaCl, 50 mM NaF, 0.5% NP40 with freshly added 20 mM β-mercaptoethanol, 10 mM imidazole, 1 mM PMSF, 1×EDTA-free Complete Protease Inhibitor (Boehringer Mannheim).
(§4) Cell lysates were clarified by centrifugation and 0.45 uM filtered prior to purification by Ni/NTA affinity chromatography (Qiagen).
(§5) Equilibrate with 10 CV of LB, load sample, wash with 10 CV RIPA buffer (50 mM Tris pH 7.5, 150 mM NaCl, 1% NP40, 1 mM EDTA, 0.25% sodium deoxycholate, added fresh 20 mM β-mercaptoethanol, 1 mM PMSF), wash with 10 CV LB, wash with 10 CV 1× KB (50 mM Tris pH 7.5, 150 mM NaCl, 4 mM MgCl2, 1 mM NaF, 2 mM βmercaptoethanol), elute with a linear gradient of 1× KB containing 200 mM Imidazole.
(§6) Both enzymes were approximately 90% pure and had autophosphorylation activity.
(§7) Reactions: 170-200 nM enzyme in 1× KB, compound dilution series in 1× KB/16% DMSO (20 uM to […] final concentration with 4% DMSO final concentration), reactions started by adding ATP mix (4 uM ATP/1 uCi ^33P-γ-ATP final concentrations) in 1× KB.
(§8) Reactions were incubated at 30° C. for 1 hr RIT204D or 40 min for RII WT. Reactions were stopped and quantitated using standard TCA/BSA precipitation onto Millipore FB glass fiber filter plates and by liquid scintillation counting on a MicroBeta JET.

Experiment [2] relates to TGF-β dependent luciferase production (p3TP-Lux reporter, Mv1Lu C1 cells). As to the kind of experiment: Mv1Lu p3TP-Lux assay. The settings on record: 10 pM TGF-β1, 16-20 hrs, read-out: IC50, inhibition of TGF-beta dependent luciferase production. It is filed as cell-based. The source says: A stable Mv1Lu clone (C1) containing the p3TP-Lux reporter was created by standard transfection and puromycin selection protocols. This stable clone was used to screen the example compounds for their ability to inhibit TGF-β dependent luciferase production as briefly described below: • 1. Plated Mv1Lu C1 cells in Wallac™ Black Isoplates. • 2. Allowed cells to adhere overnight. • 3. Removed media and replaced with 0.5% FBS DMEM media. • 4. Added the compound dilution series in 0.5% FBS/DMEM containing 1% DMSO such that the final compound concentration ranged from 20 uM to 0.1 nM and the final DMSO concentration was 0.2%. • 5. Incubated at 37° C./5% CO2 for 2 hrs. • 6. Added 0.5% FBS/DMEM as control or TGF-β1 diluted. in 0.5% FBS/DMEM (final concentration of 10 pM) to the −/+TGF-β wells respectively. • 7. Incubated for 16-20 hrs. at 37° C./5% CO2. • 8. Removed media and rinsed 1× with PBS. • 9. Removed PBS and lysed the cells with 1× Passive. Lysis Buffer (Promega) at room temperature. • 10. Counted relative luciferase activity on the MicroBeta JET by injecting Luciferase Assay Reagent II (PROMEGA).
The use of the above assay in measuring TGF-β responsive activity is described in Wrana, et al. Cell 71: 1003-1014 (1992).

The target of experiment [3] is T2, TGF-beta Type I Receptor Kinase (RIT204D) (Homo sapiens, UniProt P36897, T204D).
T2 construct: The 6×-HIS tagged cytoplasmic kinase domain of each receptor was expressed and purified from Sf9 insect cell lysates; 6xHis; made in house; host or cells: Sf9 insect cells
T2 sequence (P36897 148-503 T204D limits assumed): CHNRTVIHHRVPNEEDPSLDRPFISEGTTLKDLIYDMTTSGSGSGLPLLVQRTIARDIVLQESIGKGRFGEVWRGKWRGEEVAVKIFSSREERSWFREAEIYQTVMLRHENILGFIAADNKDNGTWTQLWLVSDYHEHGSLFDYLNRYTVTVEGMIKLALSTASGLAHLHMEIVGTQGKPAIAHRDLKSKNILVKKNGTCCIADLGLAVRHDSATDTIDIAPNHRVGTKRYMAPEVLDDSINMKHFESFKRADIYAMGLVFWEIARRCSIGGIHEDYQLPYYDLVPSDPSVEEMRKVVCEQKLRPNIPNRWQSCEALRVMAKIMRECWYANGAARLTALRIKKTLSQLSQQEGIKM
As to the kind of experiment: TGF-β Type I receptor (RIT204D) in vitro kinase reaction. It is filed as biochemical. The settings on record: RIT204D kinase domain, 4 uM ATP, 30° C. for 1 hr; read-out: IC50, inhibition of TGF-beta Type I Receptor Kinase. On the procedure: as §1, §2, §3, §4, §5, §6, §7, §8

In the next experiment the target is T3, p38α/SAPK2α (Homo sapiens, UniProt Q16539).
T3 construct: purchased Upstate Biotechnology 14-251
T3 sequence (Q16539 whole entry): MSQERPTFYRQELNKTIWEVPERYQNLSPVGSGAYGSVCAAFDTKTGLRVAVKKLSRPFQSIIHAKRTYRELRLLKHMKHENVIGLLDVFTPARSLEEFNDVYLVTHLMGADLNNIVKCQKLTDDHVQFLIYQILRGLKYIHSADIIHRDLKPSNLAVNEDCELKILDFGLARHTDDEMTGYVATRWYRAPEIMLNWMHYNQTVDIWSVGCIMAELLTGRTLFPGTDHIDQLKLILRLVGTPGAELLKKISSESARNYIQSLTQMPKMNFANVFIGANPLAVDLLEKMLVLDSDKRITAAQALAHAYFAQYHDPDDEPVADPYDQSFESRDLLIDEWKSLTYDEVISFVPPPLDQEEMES
As to the kind of experiment: p38α in vitro kinase assay. It is filed as biochemical. The settings on record: 5 nM p38α, 62.5 uM EGFR substrate, 100 uM ATP, 30° C. for 40 min. On the procedure:
Active p38α/SAPK2α was purchased from Upstate Biotechnology (cat#14-251). A known p38α substrate from EGFR was used in the assay (Young, et al. (1997) JBC 272:12116-12121).
Reactions were performed in 1× kinase buffer (25 mM Tris-HCl pH 7.5, 5 mM β-glycerophosphate, 2 mM DTT, 0.1 mM Na3VO4, 10 mM MgCl2, 1 uM Microcystin) with 5 nM p38α, 62.5 uM substrate, 40 uM to 0.2 nM compound dilution series in 1×KB/16% DMSO (final 4% DMSO concentration). Reactions were started by addition of 100 uM ATP (final concentration) with 1 uCi ^33P-γ-ATP in 1×KB and incubated at 30° C. for 40 min. Reactions were stopped with H3PO4 and quantitated on Millipore PH phosphocellulose filter plates by liquid scintillation counting on a MicroBeta JET.

Take `CCc1cccc(-c2nn3ccccc3c2-c2ccc(F)c3ccccc23)n1` [Example 47, 2-(6-Ethyl-pyridin-2-yl)-3-(4-fluoro-naphthalen-1-yl)-pyrazolo[1,5-a]pyridine]: the IC50 was 5100 nM in experiment [1], 100 nM in experiment [2] and 175 nM in experiment [3].

On to `c1ccc(-c2nn3ccccc3c2-c2ccncc2)nc1` [Example 53, 3-Pyridin-4-yl-2-pyridin-2-yl-pyrazolo[1,5-a]pyridine], for which the results for the IC50 in experiment [1], in experiment [2] and in experiment [3] were 20000 nM, 487 nM and 806 nM, respectively.

On to `CCCCc1ccc(-c2nn3ccccc3c2-c2ccnc3ccccc23)nc1` [Example 56, 4-[2-(5-Butyl-pyridin-2-yl)-pyrazolo[1,5-a]pyridin-3-yl]-quinoline], for which the IC50 amounted to 377 nM in experiment [1], 135 nM in experiment [2] and 102 nM in experiment [3].

For `CCc1cccc(-c2nn3ccccc3c2-c2ccnc3cc(Cl)c(Cl)cc23)n1` [Example 43, 6,7-Dichloro-4-[2-(6-ethyl-pyridin-2-yl)-pyrazolo[1,5-a]pyridin-3-yl]-quinoline], the IC50 in experiment [1] worked out at 3170 nM; in experiment [2] it was 120 nM; in experiment [3] it was 152 nM.

On to `Cc1cccc(-c2nn3ccccc3c2-c2ccnc3cc(OCCCN(C)C)ccc23)n1` [Example 117, Dimethyl-(3-{4-[2-(6-methyl-pyridin-2-yl)-pyrazolo[1,5-a]pyridin-3-yl]-quinolin-7-yloxy}-propyl)-amine], for which, on p38α/SAPK2α, the IC50 stood at 78 nM.

For the compound `Cc1cccc(-c2nn3ccccc3c2-c2ccnc3cc(Cl)c(Cl)cc23)n1` [Example 45, 6,7-Dichloro-4-[2-(6-methyl-pyridin-2-yl)-pyrazolo[1,5-a]pyridin-3-yl]-quinoline], the half-maximal inhibitory concentration (IC50) on p38α/SAPK2α is 390 nM.

Regarding `Cc1cccc(-c2nn3ccccc3c2-c2ccnc3cc(C(=O)NCCN(C)C)ccc23)n1` [Example 78, 4-[2-(6-Methyl-pyridin-2-yl)-pyrazolo[1,5-a]pyridin-3-yl]-quinoline-7-carboxylic acid(2-dimethylamino-ethyl)-amide], on p38α/SAPK2α, the IC50 was 233 nM.

For the origin of these results see US7365066B2, “Pyrazolopyridine derivatives as pharmaceutical agents” (Eli Lilly and Company, priority 2002, dated 2008).
